Source: patent US20140018545A1, “Inhibitors of Dipeptidylpeptidase IV” (Trustees of Tufts College, priority 2004, published 2014)
pIC50: −log10 of the molar value. Read-outs that look alike come from different tables or passages of the source.

Tests used:
DPIV [1] = target: T1, DPIV (Homo sapiens, UniProt P27487); experiment: DPIV inhibition assay (L-alanyl-L-proline-para-nitroanilide substrate, absorbance at 410 nm)
Experimental: (§1) The inhibitor solution was prepared by dissolving 3-5 mg of inhibitor in pH 2 solution (0.01 N HCl), such that the concentration of the solution was equal to 1 mg/10 μL. A 10 μL sample of this solution was then added to 990 μL of pH 8 buffer (0.1 M HEPES, 0.14 M NaCl), and the solution was allowed to stand at room temperature overnight.
(§2) The substrate solution was prepared by dissolving 2.0 mg of L-alanyl-L-proline-para-nitroanilide into 20 mL of pH 8 buffer.
(§3) 250 μL of enzyme solution was added to well #B1 to #H1, #A2 to #H2, and #A3 to #H3 of a 96 well plate, while well #A1 received 250 μL of pH 8 buffer instead of enzyme solution. 90 μL of pH 8 buffer was then added to column 5 (from well #A5 to #H5).
(§4) A 1:10 dilution was then performed by adding inhibitor solution to #A5 and the solution was mixed well before transferring 10 μL of this solution from #A5 to #B5. The solution in #B5 was then mixed well before transferring 10 μL of this solution from #B5 to #C5. The solution in #C5 was then mixed well before transferring 10 μL of this solution from #C5 to #D5. The solution in #D5 was then mixed well before transferring 10 μL of this solution from #D5 to #E5. The solution in #E5 was then mixed well before transferring 10 μL of this solution from #E5 to #F5. The solution in #F5 was then mixed well before transferring 10 μL of this solution from #F5 to #G5. The solution in #G5 was then mixed well before transferring 10 μL of this solution from #G5 to #H5.
(§5) A 30 μL aliquot was then transferred from #H5 to #H3 for row H, and the contents were mixed well. The analogous procedure was repeated for rows G, F, E, D, C, B, and A sequentially. The plate was then shaken on a plate shaker for 5 minutes before allowing the plate to incubate at room temperature for an additional 5 minutes.
(§6) Once the plate had been allowed to incubate, 30 μL of substrate was added to each well except well #A1. The plate was then placed on a plate shaker for 5 minutes before allowing the plate to incubate at room temperature for 25 minutes. The absorbance was then immediately read at a wavelength of 410 nm.

DP9 = DP9 (Homo sapiens, UniProt Q86TI2); experiment: Dipeptidyl peptidase 9 inhibition assay (Example 1 assay with DP9 substituted for DPIV); type: biochemical; settings: for DP9/DPIV ratio: ratio of IC50 values, selectivity for DPIV
Experimental: In this example, the assay was conducted for DPIV and DP9. The ratio of IC50 values for each tested compound was calculated in order to determine the selectivity for the DPIV isoform. IC50 values were measured at the same pH throughout the assay.

DPIV [2] = target: T1, DPIV; settings: pH 8
Experimental: as §1, §2, §3, §4, §5, §6

DP8 = DP8 (Homo sapiens, UniProt Q6V1X1); experiment: Dipeptidyl peptidase 8 inhibition assay (Example 1 assay with DP8 substituted for DPIV); type: biochemical; settings: at the pH values tested
Experimental: L-Ala-[5-(HOCH2)-2-boroPro] was also tested to determine its inhibition of dipeptidyl peptidases 8 and 9 (DP8 and DP9). The assay is the same as that described in Example 1, except that DP8 or DP9 was substituted for DPIV.

[3] = Example 6, same pH throughout the assay (pH not stated), read-out: DP9 IC50
[4] = read-out: DPIV IC50, Example 6, same pH throughout the assay (pH not stated)

T1 sequence (P27487 whole entry): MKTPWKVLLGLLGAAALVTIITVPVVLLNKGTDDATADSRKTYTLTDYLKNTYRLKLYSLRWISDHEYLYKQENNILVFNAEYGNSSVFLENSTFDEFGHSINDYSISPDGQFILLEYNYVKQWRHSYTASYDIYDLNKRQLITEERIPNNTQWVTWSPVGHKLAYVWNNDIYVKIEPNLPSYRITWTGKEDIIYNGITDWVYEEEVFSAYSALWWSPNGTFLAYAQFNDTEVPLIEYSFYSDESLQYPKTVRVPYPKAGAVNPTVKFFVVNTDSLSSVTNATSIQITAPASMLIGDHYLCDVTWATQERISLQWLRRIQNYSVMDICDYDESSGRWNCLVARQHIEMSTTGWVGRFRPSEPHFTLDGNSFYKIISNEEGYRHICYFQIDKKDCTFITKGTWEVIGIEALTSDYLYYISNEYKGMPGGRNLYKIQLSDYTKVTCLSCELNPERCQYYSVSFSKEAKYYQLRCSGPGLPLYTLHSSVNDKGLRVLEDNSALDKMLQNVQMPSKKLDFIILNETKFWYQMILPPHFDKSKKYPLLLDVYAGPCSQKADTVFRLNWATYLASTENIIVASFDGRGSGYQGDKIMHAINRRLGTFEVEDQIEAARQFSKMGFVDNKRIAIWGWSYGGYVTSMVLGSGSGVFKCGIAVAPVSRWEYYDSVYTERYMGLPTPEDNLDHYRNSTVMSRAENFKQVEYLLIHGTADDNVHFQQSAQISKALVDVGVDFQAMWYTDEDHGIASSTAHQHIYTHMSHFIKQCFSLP
Chain of DP9 (Q86TI2 whole entry, species assumed, canonical isoform): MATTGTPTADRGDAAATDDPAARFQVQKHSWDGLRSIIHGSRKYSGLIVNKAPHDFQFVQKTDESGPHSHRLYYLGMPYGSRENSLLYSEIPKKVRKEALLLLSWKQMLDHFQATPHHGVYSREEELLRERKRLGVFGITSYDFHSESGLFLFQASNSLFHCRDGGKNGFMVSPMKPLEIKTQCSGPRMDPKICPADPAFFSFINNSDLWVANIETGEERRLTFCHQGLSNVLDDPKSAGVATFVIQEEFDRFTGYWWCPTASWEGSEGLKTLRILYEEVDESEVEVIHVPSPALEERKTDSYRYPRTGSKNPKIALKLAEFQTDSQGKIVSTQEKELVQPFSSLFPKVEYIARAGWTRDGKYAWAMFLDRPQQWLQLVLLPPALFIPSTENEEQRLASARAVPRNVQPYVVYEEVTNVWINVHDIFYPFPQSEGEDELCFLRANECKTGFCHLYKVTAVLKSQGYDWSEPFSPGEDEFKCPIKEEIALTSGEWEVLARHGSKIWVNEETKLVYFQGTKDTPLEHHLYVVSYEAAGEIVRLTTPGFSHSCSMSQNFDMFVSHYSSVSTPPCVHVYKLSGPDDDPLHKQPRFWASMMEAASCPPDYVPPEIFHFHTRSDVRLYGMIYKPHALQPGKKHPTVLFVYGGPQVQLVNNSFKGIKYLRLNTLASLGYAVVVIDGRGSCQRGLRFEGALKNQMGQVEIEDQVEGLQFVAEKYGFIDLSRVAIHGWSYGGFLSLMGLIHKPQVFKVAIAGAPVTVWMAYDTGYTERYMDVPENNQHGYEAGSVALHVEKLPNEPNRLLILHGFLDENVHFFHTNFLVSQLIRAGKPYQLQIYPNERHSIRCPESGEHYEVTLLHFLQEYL
Chain of DP8 (Q6V1X1 whole entry, species assumed): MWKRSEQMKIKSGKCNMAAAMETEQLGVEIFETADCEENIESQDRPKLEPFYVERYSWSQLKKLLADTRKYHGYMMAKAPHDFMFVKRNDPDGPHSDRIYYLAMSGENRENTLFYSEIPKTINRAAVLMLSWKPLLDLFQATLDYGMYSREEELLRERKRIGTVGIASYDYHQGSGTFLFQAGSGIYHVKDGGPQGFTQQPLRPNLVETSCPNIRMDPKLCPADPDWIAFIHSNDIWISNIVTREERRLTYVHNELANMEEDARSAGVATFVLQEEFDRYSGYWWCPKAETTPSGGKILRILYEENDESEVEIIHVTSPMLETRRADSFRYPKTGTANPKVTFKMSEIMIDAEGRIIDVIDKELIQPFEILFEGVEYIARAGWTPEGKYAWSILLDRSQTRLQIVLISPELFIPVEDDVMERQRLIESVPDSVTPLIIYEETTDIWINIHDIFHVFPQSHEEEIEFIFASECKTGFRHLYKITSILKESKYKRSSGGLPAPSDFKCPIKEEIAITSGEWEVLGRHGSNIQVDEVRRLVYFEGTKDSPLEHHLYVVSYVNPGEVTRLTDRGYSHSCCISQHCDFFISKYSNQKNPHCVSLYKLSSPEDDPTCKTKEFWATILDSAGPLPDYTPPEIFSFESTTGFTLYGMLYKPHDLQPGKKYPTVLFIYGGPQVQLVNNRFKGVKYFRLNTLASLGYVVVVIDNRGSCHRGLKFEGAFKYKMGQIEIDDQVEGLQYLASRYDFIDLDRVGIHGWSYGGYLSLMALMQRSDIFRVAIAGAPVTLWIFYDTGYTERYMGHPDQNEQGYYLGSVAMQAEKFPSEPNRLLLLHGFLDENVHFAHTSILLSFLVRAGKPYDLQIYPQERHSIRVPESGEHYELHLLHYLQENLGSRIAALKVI

Compound | pIC50 (DP9; [3]) | DP9/DPIV ratio (DP9) | pIC50 (DPIV [1]; [4]) | also measured
CC[C@H](NC(=O)[C@@H](N)CCC(=O)O)B(O)O [Glu-boroEtg] | – | – | – | pIC50 (DPIV [1]; IC50, DPIV, pH 8): 7.31
C[C@H](NC(=O)[C@@H](N)CC(=O)O)B(O)O [Asp-boroAla] | 2.30 | 6.28 | 3.10 | –
N[C@@H](CCC(=O)O)C(=O)N1CCC[C@H]1B(O)O [Glu-boroPro] | – | – | 8.52 | pIC50 (DPIV [2]): 5.62
C[C@H](NC(=O)[C@@H](N)CCCN=C(N)N)B(O)O [Arg-boroAla] | 7.64 | 2.88 | 8.10 | –
CC1CC[C@@H](B(O)O)N1C(=O)[C@H](C)N (stereo partly drawn) [L-Ala-5-Me-boroPro] | – | – | – | pIC50 (DPIV [1]; IC50 at pH 2, DPIV, pH 2): 7.96; pIC50 (DPIV [1]; IC50 at pH 8, DPIV, pH 8): 4.81
Arg-boroEtGly | 8.15 | 0.70 | 8.00 | –

More lines, main results first:

pIC50 (DP9; [3]) | DP9/DPIV ratio (DP9) | pIC50 (DPIV [1]; [4]) | Compound | also measured
6.08 | 412 | – | N=C(N)NCCC[C@H](N)C(=O)N1CCC[C@H]1B(O)O [Arg-boroPro] | IC50 (DPIV [1]; DPIV IC50 (nM), Example 6, same pH throughout the assay (pH not stated)): 2 nM
1.55 | 700,000 | 7.40 | C[C@H](N)C(=O)N1C(CO)CCC1B(O)O (stereo partly drawn) [L-Ala-[5-(HOCH2)-2-boroPro]] | pIC50 (DPIV [1]; read-out: IC50 at pH 2, DPIV, pH 2): 7.66; pIC50 (DPIV [1]; read-out: IC50 at pH 8, DPIV, pH 8): 4.89; pIC50 (DP9; DP9, at the pH values tested, read-out: IC50): < 4.15; selectivity for DPIV over DP9 (DP9; in words, based on the IC50 ratios of Example 6): highly selective for DPIV; pIC50 (DP8): < 4.15
